Laboratory results: patent US20180235936A1, “CANCER TREATMENT METHODS” (University of Notre Dame du Lac, priority 2017, published 2018)
“Also recorded” adds a separate entry of the source.

Legend:
[1] = tested on: pancreatic cancer-associated fibroblasts (CAF1); assay: Exosome release from CAF1s treated with GW4869, exosomes dyed with CFSE and quantified; assay type: cell-based, human; conditions: CAFs; FIG. 8B / FIG. 12
Protocol: (§1) (FIG. 8A) AsPC1 cells were grown for 5 days in AsPC1-conditioned media (AsPC1/AsPC1), CAF1-conditioned media (CAF1/AsPC1) or CAF1-conditioned media depleted of exosomes (CAF1-ED/AsPC1) and then treated with 111M GEM for 3 days and live cells were counted. (FIG. 8B) CAF1s were treated with 20 gm GW4869 or DMSO along with 111M gemcitabine or PBS for 3 days. Exosomes in media were collected, dyed with CFSE, and quantified. (FIG. 8C) AsPC1 cells were co-cultured with AsPC1 cells, CAFs, GW4869-treated CAF1s, DMEM alone (Blank/AsPC1), or GW4869 in DMEM (Blank+GW4869) for 6 days then treated during co-culture with 111M gemcitabine for 3 days. Live co-cultured AsPC1 cells at the bottom of the plate were counted. (FIG. 8D) Snai1 expression was measured via RT-PCR in AsPC1 cells co-cultured with untreated CAFs (CAF-NT/AsPC1) or GW4869-treated CAFs (CAF-GW/AsPC1). (FIG. 8E) L3.6 cells were cultured in CAF1-conditioned (CAF1/L3.6) media or CAF1-conditioned media depleted of exosomes (CAF1-ED/L3.6). miR146a expression was measured via RT-PCR. **p-value<0.01.

[2] = tested on: pancreatic epithelial cancer cells (AsPC1) co-cultured with CAFs; assay: Co-culture of pancreatic epithelial cancer cells with GW4869-treated CAFs, then gemcitabine; live cell count; assay type: cell-based, human; conditions: GW4869-treated CAFs (20 μM), gemcitabine for three days during co-culture
Protocol: as §1
The bottom co-cultured epithelial cells were then treated with gemcitabine for three days during co-culture. Live co-cultured epithelial cells at the bottom of the plate were quantified using an automated cell counter. *p-value<0.05; **p-value <0.01. NS (not significant).

[3] = tested on: Snai1 mRNA; assay: Snai1 expression by RT-PCR in AsPC1 cells co-cultured with GW4869-treated CAFs; assay type: cell-based, human; conditions: exosome secretion from PCAFs inhibited by GW4869
Protocol: as §1

[4] = tested on: microRNA-92a; assay: microRNA-92a expression by RT-PCR in AsPC1 cells co-cultured with GW4869-treated CAFs; assay type: cell-based, human; conditions: PCAFs treated with GW4869 vs DMSO
Source text: FIG. 17A illustrates a graph of the results from pancreatic cancer epithelial cells (AsPC1) grown in PCAF-conditioned media; the cells expressed higher levels of microRNA-92a compared to control media, as established via RTPCR.

[5] = tested on: AsPC1 cells and CAF1 cells tumors; assay: Subcutaneous AsPC1 + CAF1 tumor growth in NOD/SCID mice; assay type: in vivo; conditions: intraperitoneally twice weekly for two weeks
Protocol: FIGS. 10A-B illustrate graphs of NOD/SCID mice that were subcutaneously implanted with one million AsPC1 cells and 200,000 CAF1 cells. Two weeks post implantation mice were treated intraperitoneally with DMSO+PBS, DMSO+gemcitabine (GEM), or PBS+GW4869 twice weekly for two weeks. (FIG. 10A) Tumor growth over the course of the ten-day post drug treatment. (FIG. 10B) Change in tumor volume from first day of drug treatment to 10 days post initial drug treatment. *p-value<0.05. NS (not significant).
Additionally, it should be appreciated that dosages can be determined as described herein. In one embodiment, the dosage of pharmaceutical composition depends on the drug itself, its efficacy, and its toxicity. As an exemplary embodiment, 2-2.5 gg GW4869 per gram mouse body weight can be intraperitoneally injected into mice twice weekly for two weeks to achieve therapeutic results.

[6] = tested on: pancreatic cancer epithelial cells; assay: Direct GW4869 treatment of pancreatic cancer epithelial cells followed by gemcitabine; percent live cells (trypan blue); assay type: cell-based, human; parameters: dose or concentration left out as unconfirmed; conditions: GW4869 for one day then gemcitabine for three days; vs DMSO
Source text: FIG. 19 illustrates a graph of the results from pancreatic cancer epithelial cells being treated with DMSO as a control or 2011M GW4869 for one day then treated with gemcitabine for three days. Live and dead cells were quantified using an automated cell counter and trypan blue staining. Percent live cells was quantified.

[7] = tested on: pancreatic cancer epithelial cells; assay: Scratch migration assay of pancreatic cancer epithelial cells; assay type: cell-based, human; parameters: dose or concentration left out as unconfirmed; conditions: GW4869, serum-free media, three days; vs DMSO
Source text: FIG. 20 illustrates a graph of the results from pancreatic cancer epithelial cells being grown to full confluency and placed in serum-free media to prevent cell proliferation. A scratch was made down to center of the plate to create a cell free zone for migration. Cells were then given DMSO as a control or 2011M GW4869. Images were taken each day for three days and distance of cell migration was quantified using ImageJ.

[8] = tested on: pancreatic cancer-associated fibroblasts (CAF1); assay: Exosome secretion from cells during chemotherapy treatment, exosomes isolated from conditioned media and quantified; assay type: cell-based, human; conditions: most prominently from PCAFs; 4 days treatment; vs untreated
Protocol: (FIG. 4A) CAF1s were left untreated (NT) or treated with 111M gem (GT) for 4 days. Exosomes were isolated from conditioned cell media, and protein lysates were used to perform a western blot for CD81 and beta-actin (left). Isolated exosomes were examined for size and structure via transmission electron microscopy (right). (FIG. 4B) CAF1 cells transduced with a GFP-CD63 lentivirus (GFP-CD63-CAF1s) were treated with luM gemcitabine (GT) or left untreated (NT) and fluorescence was analyzed via microscopy. (FIG. 4C) Total corrected cell fluorescence of GFP-CD63-CAF1 cells was quantified using ImageJ. (FIG. 4D) Cells were treated with 11.1M gemcitabine (Fibroblasts and PANC1), 10 nM gemcitabine (L3.6), or left untreated for 4 days (NT), and exosomes were collected and quantified. Scale bar, 200 Em. *pvalue<0.05; **p-value<0.01.
FIG. 5 illustrates a graph of fold change in exosome secretion per cell. CAF1 cells were plated at 500,000 cells/flask and left untreated (control), treated with 111M gemcitabine, or 10 nM Nab-Paclitaxel for 4 days. Live cells were counted. Exosomes were isolated from conditioned-media and quantified. *p-value<0.05;**p-value<0.01.

[9] = tested on: PTEN; assay: PTEN expression by RT-PCR in tumors extracted from treated NOD/SCID mice; assay type: in vivo; conditions: intraperitoneally twice weekly for two weeks; compared to control
Protocol: FIG. 16 illustrates a graph of the results from NOD/SCID mice being subcutaneously implanted with one million AsPC1 cells and 200,000 CAF1 cells. Two weeks post implantation mice were treated intraperitoneally with DMSO+PBS, DMSO+gemcitabine, PBS+GW4869, or gemcitabine+GW4869 twice weekly for two weeks. Tumors were extracted for RNA and PTEN expression within tumor samples was quantified via RT-PCR.

[10] = tested on: PCAF extracellular vesicle microRNAs; assay: MicroRNA-Seq of extracellular vesicles from gemcitabine-treated versus PBS-treated PCAFs; assay type: cell-based, human; conditions: normalized to total RNA
Source text: While Snai1 and miR-146a may play an important role in promoting chemoresistance of PECCs, other potential mechanisms exist in which PCAF exosomes may increase chemoresistance. For example, by treating PCAFs with PBS as a control or gemcitabine, collecting their secreted extracellular vesicles, lysing them, collecting the microRNA within, and quantifying the microRNAs, the role of microRNAs is made clearer. […] [table]

[11] = tested on: Snai1 and miR-146a; assay: RT-PCR of Snai1 and miR-146a in CAF1s and CAF1 exosomes during gemcitabine treatment; assay type: cell-based, human
Protocol: (FIG. 11A) RT-PCR. miR-146a and Snai1 levels were altered in CAF1s during 1 μM GEM treatment (GT) (3 days) compared to untreated control (NT). (FIG. 11B) RT-PCR. CAF1s were treated with Snai1-siRNA, and Snai1 and miR-146a expression was measured compared to negative siRNA control treated CAFs. (FIG. 11C) Exosomes from untreated and 1 μM GEM-treated CAF1s were isolated and Snai1 mRNA and miR-146a within CAF1 exosomes was quantified via RT-PCR using relative Ct values. (FIG. 11D-E) L3.6 cells were treated with GT-CAF1 exosomes for 6 days (GTCAF1/L3.6) or left untreated (L3.6 control). AsPC1 cells were treated with GT-CAF1 exosomes for 6 days (GT-CAF1/AsPC1) or left untreated (AsPC1 control). Snai1 (FIG. 11D) and miR-146a (FIG. 11E) levels were quantified in recipient cells via RT-PCR. *p-value<0.05; **p-value<0.01.

[12] = tested on: pancreatic ductal adenocarcinoma (PDAC); conditions: adjuvant gemcitabine, observed cohort; cited from earlier work
[13] = 1 μM GEM treatment (3 days) vs untreated

| Structure (SMILES) | exosome release [1] | chemoresistance of co-cultured PECCs [2] | cellular level of Snai1 mRNA within co-cultured PECCs [3] | expression of miR-92a within co-cultured PECCs [4] | tumor growth [5] | chemoresistance of PECCs treated directly [6] | cell migration of PECCs [7] | secretion of exosomes from cells [8] | PTEN expression within the tumors [9] | Fold Change (GEM vs. NT) of hsa-m1R-221-3p in extracellular vesicles [10] | Fold Change (GEM vs. NT) of hsa-miR-21-5p in extracellular vesicles [10] | Fold Change (GEM vs. NT) of hsa-miR-92a-3p in extracellular vesicles [10] | Fold Change (GEM vs. NT) of hsa-miR-181a-5p in extracellular vesicles [10] | Fold Change (GEM vs. NT) of hsa-miR-222-3p in extracellular vesicles [10] | Snai1 level in CAFs [11, 13] | miR-146a level in CAFs [11, 13] | level of Snai1 mRNA in exosomes secreted from PCAFs ([11]; 1 μM GEM-treated vs untreated) | level of miR-146a in exosomes secreted from PCAFs ([11]; 1 μM GEM-treated vs untreated) | patients eventually showing tumor recurrence [12] [%] |
| --- | --- | --- | --- | --- | --- | --- | --- | --- | --- | --- | --- | --- | --- | --- | --- | --- | --- | --- | --- |
| O=C(/C=C/c1ccc(/C=C/C(=O)Nc2ccc(C3=NCCN3)cc2)cc1)Nc1ccc(C2=NCCN2)cc1 [GW4869] | suppresses exosome release | reduced the chemoresistance | decreased | reduced expression; also recorded: decreased | reduced tumor growth | reduced chemoresistance | reduced cell migration |  |  |  |  |  |  |  |  |  |  |  |  |
| Nc1ccn([C@@H]2O[C@H](CO)[C@@H](O)C2(F)F)c(=O)n1 [gemcitabine] |  |  |  |  |  |  |  | increases secretion of exosomes | decreased | 4.325 | 2.531 | 4.66 | 3.509 | 2.649 | upregulation | upregulation | higher | higher | 74 |
